Measured values as given in patent US20250163104A1, “MACROCYCLIC IMMUNOMODULATORS” (priority 2021, published 2025).
Where a SMILES comes first, the peptide text is derived from it. Bridges are numbered along the chain shown (N, C = ends). [ ]: non-standard residue; d: D form. The star is where a group is joined. Phe(3-CF3) = N[C@@H](Cc1cccc(C(F)(F)F)c1)C(=O)O; Ala(morpholin-4-yl) = N[C@@H](CN1CCOCC1)C(=O)O; Phe(4-COOH) = N[C@@H](Cc1ccc(C(=O)O)cc1)C(=O)O; Bip = N[C@@H](Cc1ccc(-c2ccccc2)cc1)C(=O)O; Phe(3-Cl) = N[C@@H](Cc1cccc(Cl)c1)C(=O)O; Phe(3-Me) = Cc1cccc(C[C@H](N)C(=O)O)c1; Benzoyl(4-F) = O=C(c1ccc(F)cc1)*; 4Pal = N[C@@H](Cc1ccncc1)C(=O)O; Cha = N[C@@H](CC1CCCCC1)C(=O)O; Cit = NC(=O)NCCC[C@H](N)C(=O)O; Carboxymethyl = O=C(O)C*; Orn = NCCC[C@H](N)C(=O)O; Dab = NCC[C@H](N)C(=O)O; Dap = NC[C@H](N)C(=O)O

Each molecule was assayed against T1, human PD-1 / PD-L1-Ig binding on Jurkat cell line over-expressing human PD-1 (Jurkat-PD-1) (Homo sapiens, UniProt Q15116) (assay: Jurkat-PD-1 Cell Binding High-Content Screening Assay (CBA)). Conditions: Jurkat HPD1_PDL1 IC50, Jurkat-PD-1 cells, PE-labeled PD-L1-Ig 20 nM final.
T1 construct: expressed in transfected cells; host or cells: Jurkat
Format: cell-based
How it was run: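 Binding of fluorescent PD-L1-Ig (phycoerythrin linked via the Ig tag, 20 nM final) to PD-1-overexpressing Jurkat cells was imaged after a 2 h, 37° C compound pretreatment and 1 hour ligand incubation.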

T1 sequence (Q15116 25-288): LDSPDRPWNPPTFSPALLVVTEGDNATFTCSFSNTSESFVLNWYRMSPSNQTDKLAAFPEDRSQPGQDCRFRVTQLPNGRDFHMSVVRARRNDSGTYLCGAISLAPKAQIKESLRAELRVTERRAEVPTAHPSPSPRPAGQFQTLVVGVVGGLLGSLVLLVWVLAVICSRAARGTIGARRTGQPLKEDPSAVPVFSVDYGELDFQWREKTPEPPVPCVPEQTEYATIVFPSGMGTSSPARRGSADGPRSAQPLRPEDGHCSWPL

Compound	IC50
CC(C)C[C@H]1NC(=O)[C@H](CCCN)NC(=O)[C@H](C(C)C)NC(=O)[C@H](Cc2ccc(-c3ccccc3)cc2)NC(=O)[C@H](C(C)C)NC(=O)[C@H](Cc2c[nH]c3ccccc23)NC(=O)[C@H](CC(=O)O)NC(=O)[C@H](Cc2ccc(OCC(=O)O)cc2)NC(=O)[C@H](CN)NC(=O)CSC[C@@H](C(=O)N[C@@H](C)C(=O)N[C@@H](Cc2ccc(OCc3ccccc3)cc2)C(N)=O)NC(=O)[C@H]([C@@H](C)O)NC(=O)[C@H](C(C)C)NC(=O)[C@H](CC2CCCCC2)NC(=O)[C@H](CCN)NC1=O [Compound 1535]	128 nM

Same assay, conditions: Jurkat-PD-1 cells, PE-labeled PD-L1-Ig 20 nM final; read-out: Jurkat HPD1_PDL1 IC50

Compound	IC50
CC(C)C[C@H]1NC(=O)[C@H](CCCN)NC(=O)[C@H](C(C)C)NC(=O)[C@H](Cc2ccc(-c3ccccc3)cc2)NC(=O)[C@H](C(C)C)NC(=O)[C@H](Cc2cccc(Cl)c2)NC(=O)[C@H](CC(=O)O)NC(=O)[C@H](Cc2ccncc2)NC(=O)[C@H](CN)NC(=O)CSC[C@@H](C(=O)N[C@@H](C)C(N)=O)NC(=O)[C@H]([C@@H](C)O)NC(=O)[C@H](C(C)C)NC(=O)[C@H](CC2CCCCC2)NC(=O)[C@H](CCN)NC1=O [Compound 1578] ({CH2CO}-[Dap][4Pal]D[Phe(3-Cl)]V[Bip]V[Orn][dL][Dab][Cha]VTCA-NH2; thioether N-14)	35 nM
Cc1cccc(C[C@@H]2NC(=O)[C@H](CC(=O)O)NC(=O)[C@H](Cc3ccc(OCC(=O)O)cc3)NC(=O)[C@H](CCNC(=O)c3ccc(F)cc3)NC(=O)CSC[C@@H](C(N)=O)NC(=O)[C@H]([C@@H](C)O)NC(=O)[C@H](C(C)C)NC(=O)[C@H](CC3CCCCC3)NC(=O)[C@H](CCN)NC(=O)[C@@H](CC(C)C)NC(=O)[C@H](CCCN)NC(=O)[C@H](Cc3ccc(OCC(=O)O)cc3)NC(=O)[C@H](Cc3ccc(-c4ccccc4)cc3)NC(=O)[C@H](Cc3ccc(O)cc3)NC2=O)c1 [Compound 2049] ({CH2CO}-[Dab](Benzoyl(4-F))Y(Carboxymethyl)D[Phe(3-Me)]Y[Bip]Y(Carboxymethyl)[Orn][dL][Dab][Cha]VTC-NH2; thioether N-14)	79.3 nM

Next, values leading:

IC50	Compound
96.2 nM	CC[C@H](C)[C@@H]1NC(=O)[C@H](Cc2ccc(-c3ccccc3)cc2)NC(=O)[C@H](C(C)C)NC(=O)[C@H](Cc2cccc(C)c2)NC(=O)[C@H](CC(=O)O)NC(=O)[C@H](Cc2ccncc2)NC(=O)[C@H](CN)NC(=O)CSC[C@@H](C(N)=O)NC(=O)[C@H]([C@@H](C)O)NC(=O)[C@H](C(C)C)NC(=O)[C@H](CC(C)C)NC(=O)[C@H](CCN)NC(=O)[C@@H](CC(C)C)NC(=O)[C@H](CCCN)NC1=O [Compound 1554] ({CH2CO}-[Dap][4Pal]D[Phe(3-Me)]V[Bip]I[Orn][dL][Dab]LVTC-NH2; thioether N-14)
19.7 nM	CC(C)C[C@@H]1NC(=O)[C@H](CCN)NC(=O)[C@@H](CC(C)C)NC(=O)[C@H](CCCN)NC(=O)[C@H](CCCNC(N)=O)NC(=O)[C@H](Cc2ccc(-c3ccccc3)cc2)NC(=O)[C@H](C(C)C)NC(=O)[C@H](Cc2c[nH]c3ccccc23)NC(=O)[C@H](CC(=O)O)NC(=O)[C@H](Cc2ccc(OCC(=O)O)cc2)NC(=O)[C@H](Cc2ccc(OCC(=O)O)cc2)NC(=O)CSC[C@@H](C(=O)N[C@@H](C)C(N)=O)NC(=O)[C@H]([C@@H](C)O)NC(=O)[C@H](C(C)C)NC1=O [Compound 1247] ({CH2CO}-Y(Carboxymethyl)Y(Carboxymethyl)DWV[Bip][Cit][Orn][dL][Dab]LVTCA-NH2; thioether N-14)
2.8 nM	CC(C)C[C@H]1NC(=O)[C@H](CCCN)NC(=O)[C@H](Cc2ccc(C(=O)O)cc2)NC(=O)[C@H](Cc2ccc(-c3ccccc3)cc2)NC(=O)[C@H](Cc2ccc(C(=O)O)cc2)NC(=O)[C@H](Cc2cccc(C(F)(F)F)c2)NC(=O)[C@H](CC(=O)O)NC(=O)[C@H](Cc2ccc(C(=O)O)cc2)NC(=O)[C@H](CN2CCOCC2)NC(=O)CSC[C@@H](C(=O)N[C@@H](CCN)C(N)=O)NC(=O)[C@H](CCC(=O)O)NC(=O)[C@H](C(C)C)NC(=O)[C@H](CC2CCCCC2)NC(=O)[C@H](CCN)NC1=O [Example 2712] ({CH2CO}-[Ala(morpholin-4-yl)][Phe(4-COOH)]D[Phe(3-CF3)][Phe(4-COOH)][Bip][Phe(4-COOH)][Orn][dL][Dab][Cha]VEC[Dab]-NH2; thioether N-14)
